# Biological target: Human Factor D (Homo sapiens (Human), UniProt P00746)
# Test: Human Factor D Assay
# Format: biochemical
# Conditions: Table 1; Factor D purified from human serum, 80 nM, substrate Z-L-Lys-SBzl; read-out: IC50
# Protocol: Example 12. Human Factor D Assay
# Human Factor D (purified from human serum, Complement Technology, Inc.) at 80 nM final concentration is incubated with test compound at various concentrations for 5 minutes at room temperature in 50 mM Tris, 1M NaCl, pH 7.5. A synthetic substrate Z-L-Lys-SBzl and DTNB (Ellman's reagent) are added to final concentrations of 100 μM each. Absorbance at 405 nm (A405) is recorded at 30 second intervals for 30 minutes using a microplate spectrophotometer. IC50 values are calculated by nonlinear regression of complement Factor D reaction rates as a function of test compound concentration.
# Sequence of Human Factor D (P00746 26-253): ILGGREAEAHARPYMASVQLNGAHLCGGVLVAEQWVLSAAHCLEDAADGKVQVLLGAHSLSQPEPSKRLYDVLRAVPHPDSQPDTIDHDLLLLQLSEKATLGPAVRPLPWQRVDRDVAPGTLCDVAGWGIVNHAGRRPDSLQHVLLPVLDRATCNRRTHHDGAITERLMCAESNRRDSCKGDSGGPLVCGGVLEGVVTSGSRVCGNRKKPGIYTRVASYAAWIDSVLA
row,Compound,IC50
1,"CC(=O)c1cn(CC(=O)N2C[C@H](F)C[C@H]2C(=O)NCc2cccc(Cl)c2F)c2cc(NS(=O)(=O)C(F)(F)F)ccc12 [Compound 2, (2S,4R)-1-(2-(3-acetyl-6-(trifluoromethyl-sulfonamido)-1H-indol-1-yl)acetyl)-N-(3-chloro-2-fluorobenzyl)-4-fluoropyrrolidine-2-carboxamide]",< 1000 nM
2,"CC(=O)c1cn(CC(=O)N2C[C@H](F)C[C@H]2C(=O)Nc2cccc(-c3ccccc3Cl)c2F)c2ccc(Nc3cncnc3)cc12 [Compound 3, (2S,4R)-1-(2-(3-acetyl-5-(pyrimidin-5-ylamino)-1H-indol-1-yl)acetyl)-N-(2′-chloro-2-fluorobiphenyl-3-yl)-4-fluoropyrrolidine-2-carboxamide]",< 1000 nM
3,"CC(=O)c1cn(CC(=O)N2C[C@H](F)C[C@H]2C(=O)Nc2cccc(Br)n2)c2ccc(Nc3cncnc3)cc12 [Compound 4, (2S,4R)-1-(2-(3-acetyl-5-(pyrimidin-5-ylamino)-1H-indol-1-yl)acetyl)-N-(6-bromopyridin-2-yl)-4-fluoropyrrolidine-2-carboxamide]",< 1000 nM
4,"CC(=O)c1cn(CC(=O)N2C[C@H](F)C[C@H]2C(=O)Nc2cccc(Cl)n2)c2ccc(Nc3cncnc3)cc12 [Compound 6, (2S,4R)-1-(2-(3-acetyl-5-(pyrimidin-5-ylamino)-1H-indol-1-yl)acetyl)-N-(6-chloropyridin-2-yl)-4-fluoropyrrolidine-2-carboxamide]",< 1000 nM
5,"NC(=O)c1nn(CC(=O)N2C[C@H](F)C[C@H]2C(=O)Nc2cccc(-c3ccccc3Cl)c2F)c2ccc(Nc3cccnn3)cc12 [Compound 9, 1-(2-((2S,4R)-2-(2′-chloro-2-fluorobiphenyl-3-ylcarbamoyl)-4-fluoropyrrolidin-1-yl)-2-oxoethyl)-5-(pyridazin-3-ylamino)-1H-indazole-3-carboxamide]",< 1000 nM
6,"NC(=O)c1nn(CC(=O)N2C[C@H](F)C[C@H]2C(=O)Nc2cccc(-c3ccccc3Cl)c2F)c2ccc(Nc3cncnc3)cc12 [Compound 10, 1-(2-((2S,4R)-2-(2′-chloro-2-fluorobiphenyl-3-ylcarbamoyl)-4-fluoropyrrolidin-1-yl)-2-oxoethyl)-5-(pyrimidin-5-ylamino)-1H-indazole-3-carboxamide]",< 1000 nM
7,"NC(=O)c1nn(CC(=O)N2C[C@H](F)C[C@H]2C(=O)Nc2cccc(Cl)n2)c2ccc(Nc3cccnn3)cc12 [Compound 11, 1-(2-((2S,4R)-2-(6-chloropyridin-2-ylcarbamoyl)-4-fluoropyrrolidin-1-yl)-2-oxoethyl)-5-(pyridazin-3-ylamino)-1H-indazole-3-carboxamide]",< 1000 nM
8,"NC(=O)c1nn(CC(=O)N2C[C@H](F)C[C@H]2C(=O)Nc2cccc(Cl)n2)c2ccc(Nc3cncnc3)cc12 [Compound 12, 1-(2-((2S,4R)-2-(6-chloropyridin-2-ylcarbamoyl)-4-fluoropyrrolidin-1-yl)-2-oxoethyl)-5-(pyrimidin-5-ylamino)-1H-indazole-3-carboxamide]",< 1000 nM
9,"N#Cc1cnc(Nc2ccc3c(c2)c(C(N)=O)nn3CC(=O)N2C[C@H](F)C[C@H]2C(=O)Nc2cccc(-c3ccccc3Cl)c2F)nc1 [Compound 13, 1-(2-((2S,4R)-2-(2′-chloro-2-fluorobiphenyl-3-ylcarbamoyl)-4-fluoropyrrolidin-1-yl)-2-oxoethyl)-5-(5-cyanopyrimidin-2-ylamino)-1H-indazole-3-carboxamide]",< 1000 nM
10,"NC(=O)c1nn(CC(=O)N2C[C@H](F)C[C@H]2C(=O)Nc2cccc(-c3ccccc3Cl)c2F)c2ccc(Nc3cnc(C(F)(F)F)nc3)cc12 [Compound 14, 1-(2-((2S,4R)-2-(2′-chloro-2-fluorobiphenyl-3-ylcarbamoyl)-4-fluoropyrrolidin-1-yl)-2-oxoethyl)-5-(2-(trifluoromethyl)pyrimidin-5-ylamino)-1H-indazole-3-carboxamide]",< 1000 nM

# Source: US10660876B2, “Amino compounds for treatment of medical disorders” (Achillion Pharmaceuticals, Inc., priority 2015, dated 2020)
